These compounds were tested against T1, human CXCR3 (N-delta 4) (Homo sapiens, UniProt P49682) (assay: Human CXCR3 (N-delta 4) Scintillation Proximity Assay (SPA), [125I] IP-10 binding). Conditions: IC50 rating; [125I] IP-10 displacement, Ba/F3-hCXCR3 (N-delta 4) membranes.
T1 construct: CD8 leader (N); Flag tag; expressed in transfected cells; membranes
T1 sequence (P49682 5-368 limits assumed): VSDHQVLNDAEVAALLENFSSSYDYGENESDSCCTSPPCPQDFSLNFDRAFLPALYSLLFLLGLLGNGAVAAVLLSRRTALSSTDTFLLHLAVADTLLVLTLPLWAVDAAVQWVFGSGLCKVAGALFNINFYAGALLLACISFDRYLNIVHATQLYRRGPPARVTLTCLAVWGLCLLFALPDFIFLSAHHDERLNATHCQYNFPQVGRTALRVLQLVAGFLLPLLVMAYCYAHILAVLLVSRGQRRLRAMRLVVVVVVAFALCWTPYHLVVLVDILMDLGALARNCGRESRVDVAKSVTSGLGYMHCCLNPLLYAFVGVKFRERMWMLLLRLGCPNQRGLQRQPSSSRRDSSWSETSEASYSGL
Description: The inventive compounds can readily be evaluated to determine activity at The CXCR3 receptors by known methods, such as, for example, Development of Human CXCR3 (N-delta 4) Binding Assay.
Cloning and Expression of Human CXCR3 (N-Delta 4):
The DNA encoding human CXCR3 was cloned by PCR using human genomic DNA (Promega, Madison, Wis.) as a template. The PCR primers were designed based on the published sequence of human orphan receptor GPR9 (1) with incorporated restriction sites, a Kozak consensus sequence, CD8 leader and Flag tag. The PCR product was subcloned into the mammalian expression vector pME18Sneo, a derivative of the SR-alpha expression vector (designated as pME18Sneo-hCXCR3 (N-delta 4).
IL-3-dependent mouse pro-B cells Ba/F3 were transfected by electroporation in 0.4 ml Dulbecco's PBS containing 4×10^6 cells with 20 μg of pME18Sneo-hCXCR3 (N-delta 4) plasmid DNA. Cells were pulsed at 400 Volts, 100 OHMs, 960 μFd. The transfected cells were under selection with 1 mg/ml G418 (Life Technologies, Gaithersburg, Md.). G418-resistant Ba/F3 clones were screened for CXCR3 expression by specific binding of [^125I] IP-10 (NEN Life Science Products, Boston, Mass.).
Preparation of Ba/F3-hCXCR3 (N-Delta 4) Membranes
Ba/F3 cells expressing human CXCR3 (N-delta 4) were pelleted and resuspended in the lysis buffer containing 10 mM HEPES, pH 7.5 and Complete® protease inhibitors (1 tablet per 100 ml) (Boehringer Mannheim, Indianapolis, Ind.) at a cell density of 20×10^6 cells per ml. After 5 minutes incubation on ice, cells were transferred to 4639 cell disruption bomb (Parr Instrument, Moline, Ill.) and applied with 1,500 psi of nitrogen for 30 minutes on ice. Large cellular debris was removed by centrifugation at 1,000× g. Cell membrane in the supernatant was sedimented at 100,000× g. The membrane was resuspended in the lysis buffer supplemented with 10% sucrose and stored at −80° C. Total protein concentration of the membrane was determined by BCA method from Pierce (Rockford, Ill.).
Human CXCR3 (N-Delta 4) Scintillation Proximity Assay (SPA)
For each assay point, 2 μg of membrane was preincubated for 1 hr with 300 μg wheat germ agglutinin (WGA) coated SPA beads (Amersham, Arlington Heights, Ill.) in the binding buffer (50 mM HEPES, 1 mM CaCl2, 5 mM MgCl2, 125 mM NaCl, 0.002% NaN3, 1.0% BSA) at room temperature. The beads were spun down, washed once, resuspended in the binding buffer and transferred to a 96-well Isoplate (Wallac, Gaithersburg, Md.). 25 pM of [^125I] IP-10 with tested compounds in a series of titration were added to start the reaction. After 3 hr reaction at room temperature, the amount of [^125I] IP-10 bound to the SPA beads was determined with a Wallac 1450 Microbeta counter.

SMILES | IC50
CC[C@H]1CN(c2ncc(-c3ncc[nH]3)cc2Cl)CCN1C1CCN(Cc2ccc(OC(F)(F)F)cc2)CC1 [Compound 13] | < 25 nM
CC[C@H]1CN(c2ncc(-c3nnc(C(C)(C)O)o3)cc2Cl)CCN1C1CCN(Cc2ccc(Cl)cc2F)CC1 [Compound 98] | < 25 nM
CC[C@H]1CN(c2ncc(-c3ncc[nH]3)cc2Cl)CCN1C1(C)CCN(C(C(=O)OC)c2ccc(Cl)cc2)CC1 (stereo partly shown) [Compound 128] | 25 to 100 nM
CC[C@H]1CN(c2ncc(-c3ncc[nH]3)cc2Cl)CCN1C1CCN(Cc2ccc(Cl)cc2C(=O)NN)CC1 [Compound 60] | < 25 nM
CC[C@H]1CN(c2ncc(C3=NCCN3)cc2Cl)CCN1C1CCN(Cc2ccc(Cl)cc2C(C)(C)O)CC1 [Compound 44] | < 25 nM
CC[C@H]1CN(c2ncc(-c3ncc[nH]3)cc2Cl)CCN1C1CCN(Cc2ccc(C#CC(C)(C)NC(=O)OC(C)(C)C)cc2)CC1 [Compound 101] | < 25 nM
CC[C@H]1CN(c2ncc(-c3ncc[nH]3)cc2Cl)CCN1C1CCN([C@H](C(=O)NCC2CC2)c2ccc(Cl)cc2)CC1 [Compound 159] | > 100 nM
CC[C@H]1CN(c2ncc(-c3ncc[nH]3)cc2Cl)CCN1C1CCN([C@@H](C(=O)NC2CC2)c2ccc(Cl)cc2)CC1 [Compound 36] | < 25 nM
CC[C@H]1CN(c2ncc(-c3ncc[nH]3)cc2Cl)CCN1C1CCN(Cc2ccc(C#CC(C)(C)C)cc2)CC1 [Compound 25] | < 25 nM
CC[C@H]1CN(c2ncc(-c3nc(C(O)C(F)(F)F)cn3C(O)C(F)(F)F)cc2Cl)CCN1C1CCN(C(=O)c2ccc(Cl)cc2)CC1 (stereo partly shown) [Compound 163] | > 100 nM
CC[C@H]1CN(c2ncc(-c3ncc[nH]3)cc2Cl)CCN1C1CCN(Cc2ccc(C#CC(C)(C)NS(=O)(=O)NC(=O)OC(C)(C)C)cc2)CC1 [Compound 143] | > 100 nM
CC[C@H]1CN(c2ncc(-c3cncn3C)cc2Cl)CCN1C1CCN(Cc2ccc(Cl)cc2)CC1 [Compound 115] | 25 to 100 nM
CC[C@H]1CN(c2ncc(C3=NCCN3)cc2Cl)CCN1C1CCN(C(C(=O)OC)c2ccc(Cl)cc2)CC1 (stereo partly shown) [Compound 63] | < 25 nM
CC[C@H]1CN(c2ncc(-c3ncc[nH]3)cc2Cl)CCN1C1CCN(Cc2ccc(Cl)cc2-c2nnn[nH]2)CC1 [Compound 52] | < 25 nM
CC[C@H]1CN(c2ncc(-c3ncc[nH]3)cc2Cl)CCN1C1CCN(Cc2ccc(C#CC(C)(C)N)cc2)CC1 [Compound 134] | > 100 nM
CC[C@H]1CN(c2ncc(-c3nnc(COC(C)=O)o3)cc2Cl)CCN1C1CCN(Cc2ccc(Cl)cc2F)CC1 [Compound 84] | < 25 nM
CC[C@H]1CN(c2ccc(-c3ncc[nH]3)cc2Br)CCN1C1CCN(Cc2ccc(Cl)cc2F)CC1 [Compound 20] | < 25 nM
CC[C@H]1CN(c2ncc(-c3nnc(C(C)(C)OC(C)=O)o3)cc2Cl)CCN1C1CCN(Cc2ccc(Cl)cc2F)CC1 [Compound 141] | > 100 nM
CC[C@H]1CN(c2ncc(C3=NCCN3)cc2Cl)CCN1C1CCN([C@@H](CO)c2ccc(Cl)cc2)CC1 [Compound 7] | < 25 nM
CC[C@H]1CN(c2ncc(C3=NCCN3)cc2Cl)CCN1C1CCN(Cc2ccc(C#N)cc2)CC1 [Compound 29] | < 25 nM
C[C@H]1CN(c2ncc(-c3nc4ccccc4[nH]3)cc2Cl)CCN1C1CCN(Cc2ccc(Cl)cc2)CC1 [Compound 110] | 25 to 100 nM
CC[C@H]1CN(c2c(F)cc(-c3ncc[nH]3)cc2C(F)(F)F)CCN1C1CCN(Cc2ccc(Cl)cc2F)CC1 [Compound 59] | < 25 nM
CC[C@H]1CN(c2ncc(C3=NCCN3)cc2Cl)CCN1C1CCN(C(=O)c2ccc(Cl)cc2C#N)CC1 [Compound 82] | < 25 nM
CCOC(CNC(=N)c1cc(Cl)ccc1CN1CCC(N2CCN(c3ncc(-c4ncc[nH]4)cc3Cl)C[C@@H]2CC)CC1)OCC [Compound 21] | < 25 nM
CC[C@H]1CN(c2ncc(C3=NCCN3)cc2Cl)CCN1C1CCN(Cc2ccc(Cl)cc2C#N)CC1 [Compound 51] | < 25 nM
CC[C@H]1CN(c2ncc(C3=NCCN3)cc2Cl)CCN1C1CCN(C(=O)c2ccc(C#CC(C)(C)O)cc2)CC1 [Compound 104] | 25 to 100 nM
CC[C@H]1CN(c2ncc(-c3ncc[nH]3)cc2Cl)CCN1C1CCN(Cc2ccc(Cl)cc2C(=O)OC)CC1 [Compound 50] | < 25 nM

Second part, the compound after the results:

IC50 | SMILES
< 25 nM | CC[C@H]1CN(c2ncc(-c3ncc[nH]3)cc2Cl)CCN1C1CCN(Cc2ccc(Br)cc2)CC1 [Compound 2]
< 25 nM | CC[C@H]1CN(c2ncc(-c3ncc[nH]3)cc2Cl)CCN1C1CCN(C(C)c2ccc(Cl)cc2)CC1 (stereo partly shown) [Compound 8]
25 to 100 nM | CC[C@H]1CN(c2ncc(-c3ncc[nH]3)cc2Cl)CCN1C1CCN(C(=O)c2ccc(-n3cncn3)nc2)CC1 [Compound 112]
< 25 nM | CC[C@H]1CN(c2ncc(-c3ncc[nH]3)cc2Cl)CCN1C1CCN(C(=O)c2ccc(-n3cccc3)nc2)CC1 [Compound 81]
< 25 nM | CC[C@H]1CN(c2ncc(-c3ncc[nH]3)cc2Cl)CCN1C1CCN(Cc2ccc(-n3cccn3)cc2)CC1 [Compound 19]
< 25 nM | CC[C@H]1CN(c2ncc(-c3ncc[nH]3)cc2Cl)CCN1C1CCN([C@@H](C(=O)OC)c2ccc(Br)cc2)CC1 [Compound 40]
> 100 nM | CC[C@H]1CN(c2ncc(-c3ncc[nH]3)cc2Cl)CCN1C1CCN(C(=O)c2ccc(C#CC(C)(C)NS(C)(=O)=O)cc2)CC1 [Compound 171]
> 100 nM | CC[C@H]1CN(c2ncc(-c3ncc[nH]3)cc2Cl)CCN1C1CCN(C(=O)c2ccc(C#CC(C)(C)NC(=O)OC(C)(C)C)cc2)CC1 [Compound 142]
< 25 nM | CC[C@H]1CN(c2ncc(-c3ncc[nH]3)cc2Cl)CCN1C1CCN([C@@H](C(=O)NC)c2ccc(Cl)cc2)CC1 [Compound 66]
< 25 nM | CC[C@H]1CN(c2ncc(-c3ncc[nH]3)cc2Cl)CCN1C1CCN(C(=O)c2ccc(Cl)cc2N)CC1 [Compound 32]
> 100 nM | CC[C@H]1CN(c2ncc(-c3ncc[nH]3)cc2Cl)CCN1C1CCN(C(=O)c2ccc(-n3ccnc3)cc2)CC1 [Compound 156]
< 25 nM | CC[C@H]1CN(c2ncc(-c3ncc[nH]3)cc2Cl)CCN1C1CCN([C@@H](C)c2ccc(Cl)cc2)CC1 [Compound 30]
25 to 100 nM | CC[C@H]1CN(c2ncc(-c3ncc[nH]3)cc2Cl)CCN1C1CCN(C(C(=O)Nc2ccccn2)c2ccc(Cl)cc2)CC1 (stereo partly shown) [Compound 116]
> 100 nM | CC[C@H]1CN(c2ncc(-c3ncc[nH]3)cc2Cl)CCN1C1CCN(C(=O)c2ccc(C#CC(C)(C)NS(N)(=O)=O)cc2)CC1 [Compound 168]
25 to 100 nM | CC[C@H]1CN(c2ncc(-c3ncc[nH]3)cc2Cl)CCN1C1CCN(C(=O)c2ccc(-c3csnn3)cc2)CC1 [Compound 109]
< 25 nM | CC[C@H]1CN(c2ncc(-c3ncc[nH]3)cc2Cl)CCN1C1CCN(Cc2ccc(C#N)cc2)CC1 [Compound 17]
< 25 nM | CC[C@H]1CN(c2ncc(-c3ncc[nH]3)cc2Cl)CCN1C1CCN(C(=O)c2ccc(Cl)nc2N)CC1 [Compound 46]
25 to 100 nM | CC[C@H]1CN(c2ncc(-c3ncc[nH]3)cc2Cl)CCN1C1CCN(C(=O)c2ccc(C(C)=O)cc2)CC1 [Compound 111]
< 25 nM | CC[C@H]1CN(c2ncc(-c3ncc[nH]3)cc2Cl)CCN1C1CCN(C(=O)c2ccc(-n3cccc3)cc2)CC1 [Compound 67]
> 100 nM | CC[C@H]1CN(c2ncc(-c3ncc[nH]3)cc2Cl)CCN1C1CCN(Cc2ccc(C(=O)O)cc2)CC1 [Compound 162]
25 to 100 nM | CC[C@H]1CN(c2ncc(-c3ncc[nH]3)cc2Cl)CCN1C1CCN(C(=O)c2ccc(-n3cccn3)cc2)CC1 [Compound 102]
< 25 nM | CC[C@H]1CN(c2ncc(C3=NCCN3)cc2Cl)CCN1C1CCN(C(=O)c2ccc(C#N)cc2)CC1 [Compound 87]

Reference: patent publication US7417045B2, “Heterocyclic substituted pyridine or phenyl compounds with CXCR3 antagonist activity” (Schering Corporation, priority 2005, dated 2008)
